According to patent US12048678B2, “Compounds for treating myelin related disorders” (Case Western Reserve University, priority 2018, dated 2024):

Assays:
[1] = test system: EpiSC derived OPCs on microfibers; experiment: Oligodendrocyte formation and imaging on electrospun microfibers; type: cell-based, mouse; conditions: FIG. 4b
Method: A 12-well plate containing Mimetex aligned scaffold (microfiber plate, AMSBIO, AMS.TECL-006-1X, Electrospun poly-L-lactide Scaffold, […] fibre diameter cell crown inserts) was prepared as previously described. Briefly, fiber inserts were sterilized with 70% ethanol and washed with PBS before being coated with polyornithine and laminin. After laminin coating, 100,000 cells/mL of EpiSC derived OPCs (1.5 mL/well) were plated in differentiation medium. After 24 h the media was replaced with fresh media containing small molecule treatments. Every 48 h the media was replaced with fresh compound containing media for the first 4 days of 14 days culture. Microfibre inserts were fixed with 4% PFA, permeabilized with 0.1% Triton X-100, and blocked with 10% donkey serum (v/v) in PBS for 60 min. Then stained for MBP (Abcam, ab7349; 1:100) and DAPI staining (Sigma; 5 μg/ml). […] The mounted inserts were imaged on the Operetta High Content Imaging and Analysis system (PerkinElmer) and a set of 22 fields captured from each condition resulting in an average of 2000 cells being scored per well. The total microfiber area was calculated using bright filed imaging and a spot finding function (area larger than 2 p×2). The MBP+ pixel area within the defined microfiber area was then defined and the percentage of the total microfiber area calculated.

[2] = target: T1, estrogen receptor (T47D cells) (Homo sapiens, UniProt P03372); experiment: Estrogen-dependent cell proliferation assay; type: cell-based; conditions: Compound 1 at 1 μM, TASIN-1 100 nM
T1 construct: estrogen dependent growth of T47D cells; endogenous in cells; host or cells: T47D
T1 sequence (P03372 1-595): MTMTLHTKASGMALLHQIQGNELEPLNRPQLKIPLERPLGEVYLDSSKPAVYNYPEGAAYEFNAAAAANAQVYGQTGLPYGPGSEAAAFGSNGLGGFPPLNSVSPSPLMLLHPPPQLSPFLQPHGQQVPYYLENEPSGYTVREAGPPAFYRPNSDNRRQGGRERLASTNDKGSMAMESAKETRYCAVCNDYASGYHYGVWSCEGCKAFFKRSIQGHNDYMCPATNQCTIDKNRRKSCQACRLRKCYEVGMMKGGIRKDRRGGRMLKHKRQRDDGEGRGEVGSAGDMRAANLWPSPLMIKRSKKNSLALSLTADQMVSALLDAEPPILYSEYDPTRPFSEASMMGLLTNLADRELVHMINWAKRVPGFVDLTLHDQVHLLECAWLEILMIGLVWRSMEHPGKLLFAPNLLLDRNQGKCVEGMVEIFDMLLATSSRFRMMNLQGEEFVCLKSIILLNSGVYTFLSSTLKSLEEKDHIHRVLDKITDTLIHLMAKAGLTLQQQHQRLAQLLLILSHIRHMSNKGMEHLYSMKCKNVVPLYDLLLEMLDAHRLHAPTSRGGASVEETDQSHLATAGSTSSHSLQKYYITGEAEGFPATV
Method: Estrogen-dependent cell proliferation was measured as previously described with minor modifications. After growth in estrogen-free media (Phenol red-free RPMI supplemented with 10% charcoal stripped fetal bovine serum) for 5 days, cells were seeded at 2,500 cells/well into 96 well plates. The following day 3× drug containing media was added to triplicate wells and cells were allowed to grow for an additional 5 days at 37° C. in standard a 5% CO2 humidified incubator. Total DNA per well was measured using an adaptation of the method of Labarca and Paigen. At this time media was removed, cells were washed one time with 0.25×PBS and 100 μl of distilled water was added. […] After incubation at room temperature for 2 hours, plates were read in a SpectraMax i3 fluorescent plate reader (Molecular Devices, Sunnyvale, CA) with excitation at 360 nm and emission at 460 nm. All values were converted to microgram DNA per well using a standard curve derived from purified salmon testes DNA.

[3] = target: T2, EBP (Mus musculus, UniProt P70245); experiment: EBP enzymatic assay; type: biochemical; conditions: 10 μM, FIG. 4a
T2 construct: active EBP was obtained from mouse microsomes; from tissue
T2 sequence (P70245 1-230): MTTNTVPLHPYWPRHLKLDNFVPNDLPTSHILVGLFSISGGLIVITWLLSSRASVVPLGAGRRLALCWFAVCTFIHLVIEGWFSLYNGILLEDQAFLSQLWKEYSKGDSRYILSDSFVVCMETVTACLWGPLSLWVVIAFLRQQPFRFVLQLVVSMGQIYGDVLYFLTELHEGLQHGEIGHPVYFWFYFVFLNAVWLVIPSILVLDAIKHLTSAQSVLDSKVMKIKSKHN
Method: EBP enzymatic activity was measured using a reported method with slight modifications: active EBP was obtained from mouse microsomes, inhibitors were added, zymostenol was added at a final concentration of 25 μM in a final reaction volume of 500 μl, and the reaction incubated at 37° C. for 2 h. Sterols were extracted using 3×1 ml hexanes, cholesterol-d7 was added to enable quantitation, and the pooled organics were dried (Na2SO4) and evaporated under nitrogen gas. Samples were then silylated and analyzed using GC/MS as described above.

[4] = test system: cholesterol biosynthesis in OPCs (CYP51, TM7SF2, EBP); experiment: GC/MS-based sterol profiling in OPCs; type: cell-based, mouse; conditions: range of doses, GC-MS sterol profiling, FIG. 3f
Method: EpiSC-derived OPCs were plated at 0.5 million cells per ml in PDL- and laminin-coated six or twelve well plate with differentiation media. After 24 hours, cells were dissociated with Accutase, rinsed with saline, and cell pellets were frozen. For sterol analyses, cells were lysed in methanol (Sigma-Aldrich) with agitation for 30 minutes and cell debris removed by centrifugation at 10,000 rpm for 15 min. Cholesterol-d7 standard (25,26,26,26,27,27,27-^2H7-cholesterol, Cambridge Isotope Laboratories) was added before drying under nitrogen stream and derivatization with 55 μl of bis(trimethylsilyl)trifluoroacetamide/trimethylchlorosilane to form trimethylsilyl derivatives. Following derivatization at 60° C. for 20 minutes, 1 μl was analyzed by gas chromatography/mass spectrometry using an Agilent 5973 Network Mass Selective Detector equipped with a 6890 gas chromatograph system and a HP-5MS capillary column ([…]). Samples were injected in splitless mode and analyzed using electron impact ionization. Ion fragment peaks were integrated to calculate sterol abundance, and quantitation was relative to cholesterol-d7. The following m/z ion fragments were used to quantitate each metabolite: cholesterol-d7 (465), FF-Mas (482), cholesterol (368), zymostenol (458), zymosterol (456), desmosterol (456, 343), 7-dehydrocholesterol (456, 325), lanosterol (393), lathosterol (458), 14-dehydrozymostenol (456). Calibration curves were generated by injecting varying concentrations of sterol standards and maintaining a fixed amount of cholesterol-D7. The human glioma cell line GBM528 was a gift of Jeremy Rich (Cleveland Clinic). Human cortical spheroids were generated as described previously.

[5] = target: kappa opioid receptor (Homo sapiens, UniProt P41145); experiment: k-Opioid receptor agonism assay (Tango  U2OS cells); type: cell-based; conditions: Compound 1 at 1 μM, TASIN-1 100 nM, U50488 2 μM
Chain of kappa opioid receptor (P41145 whole entry): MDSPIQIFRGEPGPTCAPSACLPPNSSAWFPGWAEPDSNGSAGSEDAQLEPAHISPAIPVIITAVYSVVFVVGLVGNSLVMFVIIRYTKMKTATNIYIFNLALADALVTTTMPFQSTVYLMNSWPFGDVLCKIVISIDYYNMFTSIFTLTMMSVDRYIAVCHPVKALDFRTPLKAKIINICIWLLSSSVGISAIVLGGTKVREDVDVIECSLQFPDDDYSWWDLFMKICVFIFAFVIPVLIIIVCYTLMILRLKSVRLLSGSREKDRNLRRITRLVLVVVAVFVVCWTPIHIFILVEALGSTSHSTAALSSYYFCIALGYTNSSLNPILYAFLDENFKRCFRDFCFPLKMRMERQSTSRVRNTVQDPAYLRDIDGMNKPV

c1ccc(-c2ccc(CN3CCCCCCC3)cc2)cc1 [Compound 1] was tested, and the “area of microfibers wrapped by MBP+ oligodendrocytes” value [1] was “substantially increased”, the “effect in cell-based assay for the estrogen receptor (estrogen dependent growth of T47D cells)” value [2] was “little affinity” and the “EBP inhibition in an in vitro enzymatic assay” value [3] was “enhanced potency for EBP inhibition”. The “EBP inhibition in OPCs (zymostenol)” value [4] was “enhanced potency for EBP inhibition” and the “effect in cell-based assay for the kappa opioid receptor” value [5] was “little affinity”.
